Results: publication PMC9959048, “Lipidation of Naturally Occurring α-Helical Antimicrobial Peptides as a Promising Strategy for Drug Design” (International Journal of Molecular Sciences, 2023)
≈ marks a conversion by molar mass, not a printed value. Where two headings read alike, the source gives them in different places. Residues, ends and D or L forms follow the SMILES beside them. *: point of attachment. Myristoyl = CCCCCCCCCCCCCC(=O)*; Lauroyl = CCCCCCCCCCCC(=O)*; Octanoyl = CCCCCCCC(=O)*

How the values were obtained:
E. coli PCM2057 = type: cell-based, Escherichia coli
Experimental: (§1) The evaluation of the antimicrobial activity of the synthesized lipopeptides was performed against the following reference bacterial and fungal strains: Staphylococcus aureus PCM 1650, Staphylococcus aureus PCM 2054, Staphylococcus epidermidis PCM 521, Staphylococcus epidermidis PCM 2118, Escherichia coli PCM 2057, Candida albicans PCM 2566, Candida glabrata CCM 8270, Candida krusei CCM 8271, Candida parapsilosis CCM 8260.
(§2) For the initial cultivation of the bacteria and fungi, Luria-Bertani broth (LB, Biomaxima, Lublin, Poland) and Sabouraud Dextrose broth (SB, Biomaxima, Lublin, Poland) were used, respectively. Antimicrobial properties of the compounds were analyzed through the determination of MIC (minimal inhibitory concentrations) by my means of the serial micro-dilution technique according to the guidelines of Clinical & Laboratory Standard Institute (CLSI) established for aerobic bacteria and yeasts.
(§3) According to the procedures, Mueller–Hinton broth (MHB) was used as the working medium for the analysis of the bacterial susceptibility, while RPMI-1640 (with L-glutamine, without sodium bicarbonate) growth medium buffered with MOPS (morpholinepropanesulfonic acid) and supplemented with 2% glucose was used for the experiments with the fungi.
(§4) The experiments were carried out for 24 h at 37 and 35 °C for the bacteria and fungi, respectively. Then, the absorbance was measured at 600 nm for each well of the 96-well plate using a microplate reader (Sunrise TM, Tecan Trading AG, Männedorf, Switzerland). Based on the obtained results, the degree of inhibition of the growth of microorganisms (expressed in %) in the presence of the tested compounds range was determined with respect to the control probes. Inoculated wells without peptide were treated as a positive control (100% growth), and the wells containing working medium only were defined as a negative control (0% growth). All measurements were repeated in triplicate.

C. parapsilosis CCM 8260 = type: cell-based, Candida parapsilosis
Experimental: as §1, §2, §3, §4

S. epidermidis PCM521 = type: cell-based, Staphylococcus epidermidis
Experimental: as §1, §2, §3, §4

S. epidermidis PCM2118 = type: cell-based, Staphylococcus epidermidis
Experimental: as §1, §2, §3, §4

S. aureus PCM1650 = type: cell-based, Staphylococcus aureus
Experimental: as §1, §2, §3, §4

S. aureus PCM2054 = type: cell-based, Staphylococcus aureus
Experimental: as §1, §2, §3, §4

C. albicans PCM2566 = type: cell-based, Candida albicans
Experimental: as §1, §2, §3, §4

C. krusei CCM8271 = type: cell-based, Candida krusei
Experimental: as §1, §2, §3, §4

C. glabrata CCM8270 = type: cell-based, Candida glabrata
Experimental: as §1, §2, §3, §4

POPG liposomes = assay: CD, α-helix content in POPG liposomes; type: physicochemical; conditions: 25 °C, peptide 0.15 mg/mL, 1.3 mM POPG, from ellipticity at 222 nm
Experimental: (§5) Large unilamellar vesicles (LUV) were obtained by extrusion of MLV liposomes through polycarbonate membrane filters with a pore diameter of 100 nm (Whatman International Ltd., Kent, UK) using a mini-extruder (Avanti Polar Lipids, Inc., Alabaster, AL, USA).
(§6) CD experiments were carried out at 25 °C using a Jasco J-815 spectropolarimeter in the wavelength range 185–260 nm. The concentration of the lipopeptides was 0.15 mg/mL. The CD spectra were recorded in water, PBS (pH 7.4), 1.3 mM POPC and 1.3 mM POPG. The results are plotted as the mean molar ellipticity per one amino acid residue (MRME, deg cm^2 dmol^−1) as a function of the wavelength (nm). Additionally, we performed a conformational analysis of the selected compounds in the presence of S. aureus cells. […] The mixtures were then incubated for 2 h before recording the CD spectra.
(§7) The percentage of the α-helical structure was calculated based on the mean molar ellipticity at 222 nm using the formula: fH=θ222−3000/−36000−3000·100% where θ222 corresponds to the value of the mean molar ellipticity at a wavelength of 222 nm.

POPC liposomes = assay: CD, α-helix content in POPC liposomes; type: physicochemical; conditions: 25 °C, peptide 0.15 mg/mL, 1.3 mM POPC
Experimental: as §5, §6, §7

[1] = test system: human prostate cancer cells (PC3 line, ATCC); assay: MTT cytotoxicity assay; type: cell-based; conditions: IC50 against HaCaT divided by IC50 for PC3
Experimental: (§8) The prepared plates were further incubated for 48 h. […] The control cell viability was assumed to be 100%. Three independent experiments were carried out in three repetitions.

[2] = test system: human breast cancer cells (MCF-7 line, ATCC); assay: MTT cytotoxicity assay; type: cell-based; conditions: IC50 against HaCaT divided by IC50 for MCF-7
Experimental: as §8

POPG LUVs = assay: Isothermal titration calorimetry, binding to POPG LUVs; conditions: ITC, 25 °C, 0.05 or 0.07 mM peptide titrated with 1.3 or 1.8 mM POPG LUVs; one set of sites model (C10-LL-I: two sets of sites, first line)
Experimental: as §5
The thermodynamic parameters of the interactions of the lipopeptides with POPG and POPC liposomes were determined by isothermal titration calorimetry (ITC). Measurements were performed at 25 °C using an AutoITC microcalorimeter (MicroCal Inc., Northampton, MA, USA) with a 1.4491 mL sample and reference cells. The experiment consisted in the titration of a buffered peptide solution with a concentration of 0.05 and/or 0.07 mM with a buffered solution containing POPG or POPC LUVs with a lipid concentration of 1.3 and 1.8 mM (10.02 µL; 29 injections, 2 µL for the first injection only), as it was described previously. The result of the titration was a thermogram showing a series of peaks corresponding to the titration steps. A titration curve was obtained after integration of the peak areas. The obtained isotherms were fitted to the “one set of sites” or “two sets of sites” models available in the ORIGIN 7.0 (MicroCal Inc., Northampton, MA, USA), which made it possible to determine the enthalpy (ΔH), the binding constant (KITC) and the stoichiometry (N) of the interactions between the lipopeptide and the lipids. The following formula was used to calculate the entropy change (ΔS) and the Gibbs free energy (ΔG): ΔG=−RTln(55.5KITC)=ΔH−TΔS where: factor 55.5 is the molar concentration of water, R is the gas constant (1.986 cal·mol^−1·K^−1), and T is the absolute temperature.

[3] = Mueller–Hinton broth, inoculum 5 × 10^5 CFU/mL, 24 h, 37 °C, absorbance 600 nm, triplicate
[4] = RPMI-1640 with MOPS and 2% glucose, inoculum 5 × 10^3 CFU/mL, 24 h, 35 °C, absorbance 600 nm, triplicate

Row | Compound | MIC, E. coli PCM2057 (E. coli PCM2057; [3]) | MIC, C. parapsilosis CCM 8260 (C. parapsilosis CCM 8260; [4]) | MIC, S. epidermidis PCM521 (S. epidermidis PCM521; [3]) | MIC, S. epidermidis PCM2118 (S. epidermidis PCM2118; [3]) | MIC, S. aureus PCM2054 (S. aureus PCM2054; [3]) | MIC, C. albicans PCM2566 (C. albicans PCM2566; [4]) | MIC, C. krusei CCM8271 (C. krusei CCM8271; [4]) | MIC, C. glabrata CCM8270 (C. glabrata CCM8270; [4]) | also measured
1 | CCCCCCCCCCCC(=O)N[C@H](C(=O)N[C@@H](CCCCN)C(=O)N[C@@H](CCCCN)C(=O)N[C@H](C(=O)N[C@@H](CC(C)C)C(=O)N[C@@H](CO)C(=O)N[C@@H](CCCCN)C(=O)N[C@H](C(=O)N[C@@H](CCCCN)C(=O)N[C@@H](CCCCN)C(=O)N[C@@H](CC(C)C)C(=O)N[C@@H](CC(C)C)C(=O)N[C@@H](CCCCN)C(N)=O)[C@@H](C)CC)[C@@H](C)CC)[C@@H](C)CC [C12-LK6] (Lauroyl-IKKILSKIKKLLK-NH2) |  |  |  |  |  |  |  |  | MIC, E. coli PCM2057 (E. coli PCM2057; PCM2057, 24 h): >50 µg/mL; MIC, C. parapsilosis CCM 8260 (C. parapsilosis CCM 8260; CCM 8260, 24 h): 6.25 µg/mL (≈ 3.6 µM); MIC, S. epidermidis PCM521 (S. epidermidis PCM521; PCM521, 24 h): 25 µg/mL (≈ 14.4 µM); MIC, S. epidermidis PCM2118 (S. epidermidis PCM2118; PCM2118, 24 h): 6.25 µg/mL (≈ 3.6 µM); MIC, S. aureus PCM1650 (S. aureus PCM1650; PCM1650, 24 h): 25 µg/mL (≈ 14.4 µM); MIC, S. aureus PCM2054 (S. aureus PCM2054; PCM2054, 24 h): 50 µg/mL (≈ 28.8 µM); MIC, C. albicans PCM2566 (C. albicans PCM2566; PCM2566, 24 h): 6.25 µg/mL (≈ 3.6 µM); MIC, C. krusei CCM8271 (C. krusei CCM8271; CCM8271, 24 h): 6.25 µg/mL (≈ 3.6 µM); MIC, C. glabrata CCM8270 (C. glabrata CCM8270; CCM8270, 24 h): 3.13 µg/mL (≈ 1.8 µM)
2 | CCCCCCCCCCCCCC(=O)N[C@@H](CCCCN)C(=O)N[C@@H](CCCNC(=N)N)C(=O)N[C@@H](Cc1ccccc1)C(=O)N[C@@H](CCCCN)C(=O)N[C@@H](CCCCN)C(=O)N[C@@H](Cc1ccccc1)C(=O)N[C@@H](Cc1ccccc1)C(=O)N[C@@H](CCCCN)C(=O)N[C@@H](CCCCN)C(=O)N[C@@H](CC(C)C)C(=O)N[C@@H](CCCCN)C(N)=O [C14-ATRA-1] (Myristoyl-KRFKKFFKKLK-NH2) | >50 µg/mL | 3.13 µg/mL (≈ 1.83 µM) | 25 µg/mL (≈ 14.6 µM) | 6.25 µg/mL (≈ 3.66 µM) | 3.9 µg/mL (≈ 2.28 µM) | 2.5 µg/mL (≈ 1.46 µM) | 2.5 µg/mL (≈ 1.46 µM) | 3.13 µg/mL (≈ 1.83 µM) | MIC, S. aureus PCM1650 (S. aureus PCM1650; [3]): 12.5 µg/mL (≈ 7.32 µM)
3 | CCCCCCCC(=O)N[C@@H](CCCCN)C(=O)N[C@@H](CCCNC(=N)N)C(=O)N[C@@H](Cc1ccccc1)C(=O)N[C@@H](CCCCN)C(=O)N[C@@H](CCCCN)C(=O)N[C@@H](Cc1ccccc1)C(=O)N[C@@H](Cc1ccccc1)C(=O)N[C@@H](CCCCN)C(=O)N[C@@H](CCCCN)C(=O)N[C@@H](CC(C)C)C(=O)N[C@@H](CCCCN)C(N)=O [C8-ATRA-1] (Octanoyl-KRFKKFFKKLK-NH2) | >50 µg/mL | 50 µg/mL (≈ 30.8 µM) | 3.13 µg/mL (≈ 1.93 µM) | 3.13 µg/mL (≈ 1.93 µM) | 7.8 µg/mL (≈ 4.81 µM) | >50 µg/mL | 12.5 µg/mL (≈ 7.7 µM) | >50 µg/mL | α-Helix percentage, POPG (POPG liposomes): 20%; θ222/θ208, POPC (POPC liposomes): 0.38; α-Helix percentage, POPC (POPC liposomes; from ellipticity at 222 nm): 11%; SI PC3 [1]: 2.29; SI MCF-7 [2]: 8.55; pKITC, POPG (POPG LUVs): 5.78 ± 0.27
